Assay results: patent US11253604B2, “Conjugate of methotrexate and peptide” (CAREGEN CO., LTD., priority 2017, dated 2022)

Columns and labels:
[1] = test system: NIH3T3 fibroblast lines; experiment: Cytotoxicity test: cell proliferation by MTT analysis (Ez-cytox kit); details: NIH3T3 fibroblasts, 3.9 to 500 μM, 48 hours, vs non-treated negative control
[2] = test system: HaCaT keratinocyte lines; experiment: as above; details: HaCaT keratinocytes, 3.9 to 500 μM, 48 hours, vs non-treated negative control

With `CN(Cc1cnc2nc(N)nc(N)c2n1)c1ccc(C(=O)N[C@@H](CCC(=O)O)C(=O)O)cc1` [methotrexate, Methotrexate] the “cytotoxicity (inhibition of cell proliferation)” value [1] was “exhibited a significant degree of cytotoxicity” and the “cytotoxicity (inhibition of cell proliferation)” value [2] was “exhibited a significant degree of cytotoxicity”.
